Measurements published in ChEMBL document CHEMBL1909046, “DrugMatrix in vitro pharmacology data”.

Assays:
Thromboxane-A synthase = molecular target: T1, Thromboxane-A synthase (Homo sapiens, UniProt P24557); test: biochemical; assay type: tissue-based, Platelet; conditions: platelet;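 note: enzyme inhibition assay with PGH2 supplied as substrate; in other assays of this panel Not Active means under 50% inhibition at 10 µM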
T1 sequence (P24557 whole entry): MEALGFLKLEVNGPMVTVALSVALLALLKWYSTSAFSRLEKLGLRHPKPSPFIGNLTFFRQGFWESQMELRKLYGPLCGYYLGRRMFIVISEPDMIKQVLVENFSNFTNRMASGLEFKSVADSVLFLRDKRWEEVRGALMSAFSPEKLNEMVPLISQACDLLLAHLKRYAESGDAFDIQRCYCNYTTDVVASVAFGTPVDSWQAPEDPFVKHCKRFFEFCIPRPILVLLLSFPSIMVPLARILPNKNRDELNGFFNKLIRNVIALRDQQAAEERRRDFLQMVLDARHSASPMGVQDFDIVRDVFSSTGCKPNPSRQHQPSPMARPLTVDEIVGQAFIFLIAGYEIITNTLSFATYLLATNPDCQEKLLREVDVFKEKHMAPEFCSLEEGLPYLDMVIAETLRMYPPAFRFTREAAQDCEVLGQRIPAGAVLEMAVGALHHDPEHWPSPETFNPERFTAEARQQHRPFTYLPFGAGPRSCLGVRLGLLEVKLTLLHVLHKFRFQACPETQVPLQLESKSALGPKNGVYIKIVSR

[1] = molecular target: T2, Alpha-2C adrenergic receptor (Homo sapiens, UniProt P18825); test: DRUGMATRIX: Adrenergic Alpha-2C radioligand binding (ligand: [3H] MK-912); assay type: cell membranes, Sf9, Membrane; conditions: sf9
T2 sequence (P18825 whole entry): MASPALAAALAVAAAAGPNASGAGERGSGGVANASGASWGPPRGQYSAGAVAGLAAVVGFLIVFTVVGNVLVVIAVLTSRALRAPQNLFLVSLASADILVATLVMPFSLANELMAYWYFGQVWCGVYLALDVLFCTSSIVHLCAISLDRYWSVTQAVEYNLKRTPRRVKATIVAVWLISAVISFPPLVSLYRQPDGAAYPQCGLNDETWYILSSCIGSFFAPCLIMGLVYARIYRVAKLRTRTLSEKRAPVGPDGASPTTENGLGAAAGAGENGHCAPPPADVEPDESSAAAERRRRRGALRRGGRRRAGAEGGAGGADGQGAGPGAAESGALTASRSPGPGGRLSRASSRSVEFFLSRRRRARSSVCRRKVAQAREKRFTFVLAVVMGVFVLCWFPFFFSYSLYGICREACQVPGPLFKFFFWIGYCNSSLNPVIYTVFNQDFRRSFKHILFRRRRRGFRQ

[2] = DRUGMATRIX: GABAA, Flunitrazepam, Central radioligand binding (ligand: [3H] Flunitrazepam); assay type: cell membranes, Rattus norvegicus, Wistar, Brain, Membrane; conditions: Not Active = under 50% inhibition at 10 µM
[3] = molecular target: Protein phosphatase 3 catalytic subunit alpha (Homo sapiens, UniProt Q08209); design: species or system Escherichia coli;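 note: inhibition of calcineurin (PP2B) enzyme activity, measured with DiFMUP as the substrate; in other assays of this panel Not Active means under 50% inhibition at 10 µM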
[4] = molecular target: 5-hydroxytryptamine receptor 6 (Homo sapiens, UniProt P50406); assay type: cell membranes, HeLa, Membrane; note: in other assays of this panel Not Active means under 50% inhibition at 10 µM
Mu-type opioid receptor = Mu-type opioid receptor (Homo sapiens, UniProt P35372); test: DRUGMATRIX: Opiate mu (OP3, MOP) radioligand binding (ligand: [3H] Diprenorphine); assay type: cell membranes, CHO-K1, Membrane; conditions: cho-k1; Not Active = under 50% inhibition at 10 µM
Mu-type opioid receptor, sequence (P35372 whole entry): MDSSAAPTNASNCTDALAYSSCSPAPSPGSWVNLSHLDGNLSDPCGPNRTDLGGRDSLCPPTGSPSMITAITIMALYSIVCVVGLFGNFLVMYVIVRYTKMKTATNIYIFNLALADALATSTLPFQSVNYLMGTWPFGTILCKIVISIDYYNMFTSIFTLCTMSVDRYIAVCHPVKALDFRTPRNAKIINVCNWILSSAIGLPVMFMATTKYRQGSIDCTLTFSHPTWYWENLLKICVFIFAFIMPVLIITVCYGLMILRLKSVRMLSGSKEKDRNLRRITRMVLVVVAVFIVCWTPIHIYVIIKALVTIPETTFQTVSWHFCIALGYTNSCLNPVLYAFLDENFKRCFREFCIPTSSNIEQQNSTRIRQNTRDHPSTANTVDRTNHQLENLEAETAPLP

5-hydroxytryptamine receptor 6, sequence (P50406 whole entry): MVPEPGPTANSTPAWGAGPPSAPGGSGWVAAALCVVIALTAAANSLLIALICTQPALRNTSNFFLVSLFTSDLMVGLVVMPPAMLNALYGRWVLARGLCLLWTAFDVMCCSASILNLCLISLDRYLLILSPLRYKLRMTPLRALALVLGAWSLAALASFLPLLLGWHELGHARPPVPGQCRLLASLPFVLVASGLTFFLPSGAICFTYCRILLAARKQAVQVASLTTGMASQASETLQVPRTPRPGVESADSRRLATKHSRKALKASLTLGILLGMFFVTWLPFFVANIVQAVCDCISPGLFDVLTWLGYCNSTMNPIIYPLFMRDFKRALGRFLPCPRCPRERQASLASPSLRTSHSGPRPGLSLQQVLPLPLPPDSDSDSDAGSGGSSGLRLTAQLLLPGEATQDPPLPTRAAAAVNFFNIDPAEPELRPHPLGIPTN

Row | Compound | IC50 (Thromboxane-A synthase) | IC50 [1] | IC50 [2] | Ki [2] | IC50 [3] | IC50 ([4]; hela) | IC50 (Mu-type opioid receptor) | IC50 ([4]; read-out: IC50) [nM] | Ki ([4]; read-out: Ki) [nM] | Ki (Thromboxane-A synthase) | Ki [1] | Ki [3] | Ki ([4]; hela)
1 | Nn1nnc2ccccc21 | Not Active | Not Active | Not Active | Not Active | Not Active | Not Active | Not Active |  |  |  |  |  | 
2 | CC[C@]1(O)CC[C@H]2[C@@H]3CCC4=CCCC[C@@H]4[C@H]3CC[C@@]21C | Not Active | Not Active | Not Active | Not Active | Not Active | Not Active | Not Active |  |  |  |  |  | 
3 | N[C@@H](Cc1ccc(F)cc1)C(=O)O | Not Active | Not Active | Not Active | Not Active | Not Active | Not Active | Not Active |  |  |  |  |  | 
4 | CCOC(=O)[C@H](CCc1ccccc1)N[C@@H](C)C(=O)N1Cc2ccccc2C[C@H]1C(=O)O | Not Active | Not Active | Not Active | Not Active | Not Active | Not Active | Not Active |  |  |  |  |  | 
5 | O=C(c1ccccc1Cl)N1CCC(Cc2ccccc2)CC1 | Not Active | Not Active | Not Active | Not Active | Not Active | Not Active | Not Active |  |  |  |  |  | 
6 | CCOC(=O)[C@H](CCc1ccccc1)N[C@@H](C)C(=O)N1CCC[C@H]1C(=O)O | Not Active | Not Active | Not Active | Not Active | Not Active | Not Active | Not Active |  |  |  |  |  | 
7 | Clc1cc2c(cc1Cl)Oc1cc(Cl)c(Cl)cc1O2 [2,3,7,8-TETRACHLORODIBENZO-P-DIOXIN] | Not Active | Not Active | Not Active | Not Active | Not Active | Not Active |  |  |  |  |  |  | 
8 | C=C1/C(=C\C=C2/CCC[C@]3(C)[C@@H]([C@H](C)CCCC(C)C)CC[C@@H]23)C[C@@H](O)C[C@@H]1O [ALFACALCIDOL] | Not Active | Not Active | Not Active | Not Active | Not Active | Not Active | Not Active |  |  |  |  |  | 
9 | CCCCCC[C@H]1C(=O)O[C@H](C)[C@H](NC(=O)c2cccc(NC=O)c2O)C(=O)O[C@@H](C)[C@@H]1OC(=O)CC(C)C [ANTIMYCIN A] | Not Active | Not Active | Not Active | Not Active | Not Active | Not Active | Not Active |  |  |  |  |  | 
10 | C[C@@H]1CC[C@H]2[C@@H](C)C(=O)O[C@@H]3O[C@@]4(C)CC[C@@H]1[C@]32OO4 [ARTEMISININ] | Not Active | Not Active | Not Active | Not Active | Not Active | Not Active | Not Active |  |  |  |  |  | 
11 | CO[C@H]1[C@@H](O)[C@H](N)[C@@H](O[C@H]2O[C@H]([C@H](C)N)CC[C@H]2N)[C@H](O)[C@@H]1N(C)C(=O)CN [ASTROMICIN] | Not Active | Not Active | Not Active | Not Active | Not Active | Not Active | Not Active |  |  |  |  |  | 
12 | [N-]=[N+]=CC(=O)OC[C@H](N)C(=O)O [AZASERINE] | Not Active | Not Active | Not Active | Not Active | Not Active | Not Active | Not Active |  |  |  |  |  | 
13 | CC[C@H]1OC(=O)[C@H](C)[C@@H](O[C@H]2C[C@@](C)(OC)[C@@H](O)[C@H](C)O2)[C@H](C)[C@@H](O[C@@H]2O[C@H](C)C[C@H](N(C)C)[C@H]2O)[C@](C)(O)C[C@@H](C)CN(C)[C@H](C)[C@@H](O)[C@]1(C)O [AZITHROMYCIN] | Not Active | Not Active | Not Active | Not Active | Not Active | Not Active | Not Active |  |  |  |  |  | 
14 | CC(C)(C)c1ccc(S(=O)(=O)/C=C/C#N)cc1 [BAY-11-7085] | Not Active | Not Active | Not Active | Not Active | Not Active | Not Active | Not Active |  |  |  |  |  | 
15 | CCc1oc2ccccc2c1C(=O)c1cc(Br)c(O)c(Br)c1 [BENZBROMARONE] | Not Active | Not Active | Not Active | Not Active | Not Active | Not Active | Not Active |  |  |  |  |  | 
16 | O=c1cc(-c2ccccc2)oc2ccc3ccccc3c12 [BETA-NAPHTHOFLAVONE] | Not Active | Not Active | Not Active | Not Active | Not Active | Not Active | Not Active |  |  |  |  |  | 
17 | CC(C)C[C@H]1C(=O)N2CCC[C@H]2[C@]2(O)O[C@](NC(=O)[C@@H]3C=C4c5cccc6[nH]c(Br)c(c56)C[C@H]4N(C)C3)(C(C)C)C(=O)N12 [BROMOCRIPTINE] | Not Active |  | Not Active | Not Active | Not Active |  |  | 22 | 10 |  |  |  | 
18 | CS(=O)(=O)OCCCCOS(C)(=O)=O [BUSULFAN] | Not Active | Not Active | Not Active | Not Active | Not Active | Not Active | Not Active |  |  |  |  |  | 
19 | O=C(/C=C/c1ccc(O)c(O)c1)OCCc1ccccc1 [CAFFEIC ACID PHENETHYL ESTER] | Not Active | Not Active | Not Active | Not Active | Not Active | Not Active | Not Active |  |  |  |  |  | 
20 | COc1cc(CNC(=O)CCCC/C=C/C(C)C)ccc1O [CAPSAICIN] | Not Active | Not Active | Not Active | Not Active | Not Active | Not Active | Not Active |  |  |  |  |  | 
21 | NC(=O)N1c2ccccc2C=Cc2ccccc21 [CARBAMAZEPINE] | Not Active | Not Active | Not Active | Not Active | Not Active | Not Active | Not Active |  |  |  |  |  | 
22 | CCOC(=O)n1ccn(C)c1=S [CARBIMAZOLE] | Not Active | Not Active | Not Active | Not Active | Not Active | Not Active | Not Active |  |  |  |  |  | 
23 | Nc1nc(N)nc(NC2CC2)n1 [CYROMAZINE] | Not Active | Not Active | Not Active | Not Active | Not Active | Not Active |  |  |  |  |  |  | 
24 | CN1C[C@H](C(=O)N[C@]2(C)O[C@@]3(O)[C@@H]4CCCN4C(=O)[C@H](Cc4ccccc4)N3C2=O)C[C@@H]2c3cccc4[nH]cc(c34)C[C@H]21 [DIHYDROERGOTAMINE] | Not Active |  | Not Active | Not Active | Not Active |  | Not Active | 3.2 | 1.49 |  |  |  | 
25 | Cc1cnc(C(=O)NCCc2ccc(S(=O)(=O)NC(=O)NC3CCCCC3)cc2)cn1 [GLIPIZIDE] | Not Active | Not Active | Not Active | Not Active |  | Not Active | Not Active |  |  |  |  |  | 
26 | N=C(N)N/N=C/c1c(Cl)cccc1Cl [GUANABENZ] | Not Active |  | Not Active | Not Active | Not Active | Not Active | Not Active |  |  |  |  |  | 
27 | COc1ccc(Cc2nccc3cc(OC)c(OC)cc23)cc1OC [PAPAVERINE] | Not Active | Not Active | Not Active | Not Active | Not Active | Not Active |  |  |  |  |  |  | 
28 | COBALT(II) ACETYLACETONATE | Not Active | Not Active | Not Active | Not Active | Not Active | Not Active |  |  |  | Not Active | Not Active | Not Active | Not Active
29 | INSULIN HUMAN | Not Active | Not Active | Not Active | Not Active | Not Active | Not Active |  |  |  | Not Active | Not Active | Not Active | Not Active
30 | POLYVINYL ALCOHOL | Not Active | Not Active | Not Active | Not Active | Not Active | Not Active |  |  |  | Not Active | Not Active | Not Active | Not Active
